Key:
AADH = AADH in vitro enzyme activity assay from yeast cell lysates; format: biochemical; settings: in vitro, expressed in yeast
Protocol: AADH activity was measured as described by Kozak et al. (2014, Metab. Eng. 21:46-59) by monitoring the reduction of NAD^+ at 340 nm at 30° C. The yeast cells for the cell lysates were collected, washed with water, and then resuspended into lysis buffer containing 100 mM Tris-HCl buffer (pH 7.5) and 1×EDTA free protease inhibitor cocktail (Roche). The cells were lysed with glass beads in a Precellys 24 homogenizer at 5500 rpm for 3×40 seconds and kept on ice between rounds. Lysates were centrifuged at 16 000 g for 20 min at 4° C. and supernatants were collected. The total protein concentration was determined using the Bradford method.
The enzyme assay reaction mixture contained 0.1 mM Coenzyme A, 50 mM CHES buffer (pH 9.5), 0.8 mM NAD^+, 0.2 mM DTT and 10 μL of cell extract in a total reaction volume of 200 μL. The reaction was started by adding 10 mM of freshly prepared acetaldehyde solution and reduction of NAD^+ was followed with a Thermo Konelab 20XT analyser.
Five AADH genes were originally chosen (i.e. ADHEpm, ADHEec, EUTec, EUTdz and LIN1129li) and transformed into the CEN.PK lab strain. These AADHs were expressed from a multicopy plasmid where they were under control of the TEF1 promoter.
Twenty additional novel AADH genes were chosen from the genome mining analyses to be evaluated for expression and enzyme activity in yeast.

[1] = test system: S. cerevisiae VSK-128 ACS2 deletion strain; experiment: AADH in vivo growth assay, ACS2 deletion strain on glucose-based agar plates; format: cell-based
Description: All copies of the ACS2 gene were deleted from the industrial S. cerevisiae VSK-128 strain in order to generate a strain with a defective PDH-bypass that was incapable of growth on glucose-based medium. Expression vectors carrying the 25 different AADH variants were then transformed into this ACS2 deletion strain to evaluate their ability to recover the growth of this strain on glucose.
There was a good correlation between the in vitro AADH enzyme activity assays and the in vivo growth recovery analyses.

ACC1 = experiment: ACC radioactive enzyme assay (14C carbonate) from yeast cell lysates; format: biochemical, S. cerevisiae; settings: strains of Table 13, FIG. 2
Description: The most commonly used in vitro ACC assay is based on the usage of radioactive ^14C carbonate. The incorporation of radioactive carbonate into an acid and a non-volatile material (i.e. malonyl-CoA) is followed. The ^14C-labelled sodium bicarbonate which has not been converted to malonyl-CoA is removed by an acid and heat treatment which converts the remaining NaH14CO3 and the possible side products of the reaction into ^14C-labelled CO2.
This assay described by Diacovich et al. (2002, J. Biol. Chem. 277:31228-31236) has been used to detect ACC activity from yeast lysates (Shi et al. 2014, mBIO 5:3 e01130-14) with slight modifications. The cell lysates were prepared from yeast cells harvested during late exponential or stationary phase. The cells were washed and then resuspended in lysis buffer containing 100 mM potassium phosphate pH 7.5, 2 mM MgCl2, 1 mM dithiothreitol and 1×EDTA free Complete protease inhibitor (Roche). The cells were disrupted by glass beads and the supernatant was collected after centrifugation at 4° C. […]
The reaction was incubated at 30° C. for 15 min, and stopped by adding 50 μL of 5 M HCl. […] The ^14C content of the samples was determined using a liquid scintillation counter (PerkinElmer Tri-Carb 2810TR). […]
The radioactive ACC enzyme assay is very sensitive, even pmol/mg/min activities can be detected. […]

Substance | AADH activity (AADH) | recovery of the growth deficiency of the ACS2-deletion strain [1] | relative ranking on ACC1 activity (ACC1)
ADHEec: adhE type AADH of Escherichia coli K-12 substr. MG1655, GenBank NP_415757.1 | showed AADH activity | capable of recovering the growth deficiency | 
ACCyl: acetyl-CoA carboxylase of Yarrowia lipolytica CLIB122, GenBank XP_501721.1 |  |  | most promising candidate

Source: patent US10704064B2, “Recombinant yeast producing 3-hydroxypropionic acid and method for producing 3-hydroxypropionic acid using the same” (SK Innovation Co., Ltd., priority 2014, dated 2020)
